Consider 4 molecules from paper PMC11083148, “Structure–Activity Relationship Studies on Highly Functionalized Pyrazole Hydrazones and Amides as Antiproliferative and Antioxidant Agents” (International Journal of Molecular Sciences, 2024).

Structures are written as SMILES. Values joined by “and” are separate entries in the source; they are usually repeats but may differ in a detail not shown here. Equal entries are not always repeated.

For series [1], the system named is washed platelets. The series can be described thus: ROS assay in platelets (DCFH-DA, thrombin-stimulated). It is filed as cell-based, human. To be noted: Homo sapiens, Platelet, 0.1 U/mL thrombin, mean ± SD, read-out: IC50 ROS production inhibition. On the procedure:
(§1) The antioxidant properties of acylhydrazones 10–13 and pyrazolyl amides 14–22 were tested by evaluating their inhibition of platelet aggregation and ROS production (Figure 3, Table S1). In fact, human platelets could represent a fast and low-cost biological model to screen compounds as anticancer, anti-inflammatory, and antiaggregating agents. Moreover, ROS production inhibition, related to human platelet aggregation, could provide a good indication of the anti-inflammatory and antioxidant properties of the newly synthesized compounds [47, 50, 51, 52]. N-acetylcysteine (NAC) and acetyl salicylic acid (ASA) were used as reference drugs for antioxidant and antiaggregant activities, respectively.
(§2) Freshly drawn venous blood from healthy volunteers from “Centro Trasfusionale” (IRCCS Policlinico San Martino, Genoa, Italy) was collected into a 130 mM aqueous trisodium citrate anticoagulant solution (9:1). The donors claimed to not have taken drugs known to interfere with platelet function during the two weeks prior to blood collection and gave their informed consent. Whole blood was centrifuged at 100× g for 20 min to afford platelet-rich plasma that was then spun at 1100× g for 15 min. The obtained pellet was washed once with a pH 5.2 ACD solution (75 mM trisodium citrate, 42 mM citric acid, and 136 mM glucose), centrifuged at 1100× g for 15 min, and then re-suspended in pH 7.4 Hepes buffer (145 mM NaCl, 5 mM KCl, 1 mM MgSO4, 10 mM glucose, and 10 mM HEPES).
2′,7′-Dichlorofluorescein diacetate (DCFH-DA) and thrombin were purchased from Sigma-Aldrich/Merck Millipore. DMSO solutions of 10–22 were diluted in saline immediately before each experiment. ROS production was quantified by DCFH-DA, a ROS-sensitive probe that yields, upon oxidation, the fluorescent adduct DCF that is trapped inside the cells. Briefly, washed platelets (1.0 × 10^8/mL), pre-incubated with saline solutions of 10–22 for 15 min at 37 °C, were stimulated by 0.1 U/mL thrombin. Incubation was stopped by cooling samples in an ice bath, and then samples were immediately analyzed in a Merck Millipore Bioscience Guava easyCyte flow cytometer (Merk Millipore, Burlington, MA, USA). The reported IC50 values represent the molar concentration of the compounds able to inhibit 50% of the maximal aggregation induced by the agonist and are calculated as the percentage inhibition of the maximal aggregation measured in the presence of the agent compared with the measure in a control sample containing saline, carried out under the same conditions. The IC50 values were extrapolated from nonlinear regression analysis of concentration–response curves (three points) using MS Excel software (Microsoft 365 suite). Each IC50 value is the mean of six independent experiments.

The next series relates to GM-6114. The series can be described thus: MTT assay, cytotoxicity on normal fibroblasts. It is filed as cell-based. To be noted: human, 48 h, 10 µM. A general note: Tetrazolium assays rely on reduction of a dye to a coloured formazan, in cell work by metabolically active cells.
The test system of series [2] is washed platelets. The series can be described thus: Platelet aggregation (thrombin-induced, Born's method). To be noted: Homo sapiens, 0.1 U/mL thrombin, mean ± SD, read-out: IC50 Aggregation inhibition. It is filed as cell-based. The procedure: as §1, §2
Thrombin was purchased from Sigma-Aldrich/Merck Millipore. A DMSO solution of compounds 10–22 was diluted in saline immediately before each experiment and added to the washed platelets (3.0 × 10^8/mL) at 37 °C. After 3 min, 0.1 U/mL thrombin was added, and platelet aggregation was quantified according to Born’s method using a Bio-Data Aggregometer (Bio-Data Corporation, Horsham, PA, USA). The IC50 values were calculated as detailed above.

Series [3] is described as follows: DPPH radical-scavenging activity. Type of series: physicochemical. Also noted: AA (%), percentage of antioxidant activity: concentration or dose not given beside the values. To be noted: mean ± SD, n = 2. On the procedure: The antioxidant activity of the representative compounds of the two series (namely, acylhydrazones 10b, 11a, 11d, 12d, 13d, and amides 14, 22) was measured in vitro using the 2,2-diphenyl-1-picrylhydrazyl (DPPH) assay. The results were calculated as Trolox equivalent and expressed as a percentage of antioxidant activity (AA) (Table 3). […] Derivatives 10b and 12d were endowed with the highest antioxidant activity, thus highlighting the relevance of both pyrazole N1 and acylhydrazone substituents on compounds’ radical scavenging properties.
Compounds 10b, 11a, 11d, 12d, 13d, 14, and 22 (ca. 3 mg) were dissolved in DMSO (1 mL), and then 100 µL of this solution was mixed with 3.9 mL of DPPH methanol solution (65 µM). Absorbance was measured at 517 nm after reacting for 30 min in the dark. The linear calibration curve was obtained using Trolox standards (ranging between 20 and 200 mg/L, R^2 = 0.9955). The result was calculated as Trolox equivalent in mg/L, and the percentage of antioxidant activity (AA%) was calculated from the ratio of decreasing absorbance of sample solution (A0 − As) to absorbance of blank DPPH solution (A0), as expressed in Equation (1). (1) AA%=A0−As/A0×100
All analyses were carried out in duplicate (n = 2), and values are given as means ± standard deviation (SD).

The next series has as its system SKOV3. The series is described as follows: MTT assay, antiproliferative activity. It is filed as cell-based. The note with it: Homo sapiens, SK-OV-3, 10 µM, 48h. The procedure:
(§3) Pyrazole acylhydrazones 10–13 and amides 14–22 were tested by MTT assay to evaluate their antiproliferative and cytotoxicity properties against a panel of eight tumor cell lines and normal fibroblasts.
(§4) All reagents were purchased from EuroClone, Milan, Italy). The following cell lines were used for MTT assays: SKOV-3 (ovarian adenocarcinoma, ATCC, Manassas, VA, USA); MCF-7 (breast adenocarcinoma, Biologic Bank and Cell Factory, IRCCS Policlinico San Martino, Genoa, Italy); Hep-G2 (hepatocellular carcinoma, ATCC, Manassas, VA, USA); SK-MEL28 (skin melanoma, Biologic Bank and Cell Factory, IRCCS Policlinico San Martino, Genoa, Italy), GM-6114 (embryonic human fibroblast, ATCC, Manassas, VA, USA); MDA-MB231 (breast adenocarcinoma, Biologic Bank and Cell Factory, IRCCS Policlinico San Martino, Genoa, Italy); HeLa (cervical adenocarcinoma, Biologic Bank and Cell Factory, IRCCS Policlinico San Martino, Genoa, Italy); SK-BR3 (breast andenocarcinoma, Biologic Bank and Cell Factory, IRCCS Policlinico San Martino, Genoa, Italy); A549 (lung carcinoma, Biologic Bank and Cell Factory, IRCCS Policlinico San Martino, Genoa, Italy); HUVEC (Human Umbilical Vein Endothelial Cells, ATCC, Manassas, VA, USA). All cell lines were grown in their medium with 10% FBS, 2 mM Glutamine, and 1% penstrep and incubated at 37 °C in 5% CO2 in a humidified environment. The cell lines were plated in 96-well plates at an adequate number to reach 80–90% confluence at the end of the assay. 16 h after cell plating, a 10 mM DMSO stock solution of the compounds was diluted in growth medium and added at a final working concentration of 10 μM. After 48h of incubation, a 2 mg/mL PBS solution of MTT (3-(4,5-dimethyl-2-thiazolyl)-2,5-diphenyl-2H-tetrazolium bromide) was added (30 μL/well). After 4h, the supernatant was removed, and the Formazan precipitates were dissolved in DMSO (100 μL/well). The 96-well plates were incubated for 20 min, and absorbance was measured at 570 nm using a plate reader. The results are expressed as a percentage ratio over control samples (100%) in which the cells were incubated with the same amount of DMSO but without compounds. Each value is the mean of three independent experiments run in six replicates.
(§5) Each IC50 value is the mean of three independent experiments run in duplicate.

A further series has as its system MCF7. The series is described as follows: MTT assay, antiproliferative activity. It is filed as cell-based. To be noted: Homo sapiens, 10 µM, 48h. On the procedure: as §3, §4, §5
A further series relates to HeLa. The series is described as follows: MTT assay, antiproliferative activity. The note with it: Homo sapiens, 10 µM, 48h, read-out: Mean Growth Percentage. Type of series: cell-based. On the procedure: as §3, §4, §5
A further series deals with SKMEL28. The series can be described thus: MTT assay, antiproliferative activity. Type of series: cell-based. To be noted: Homo sapiens, SK-MEL-28, 10 µM, 48h. The procedure: as §3, §4, §5
In another series the test system is Hep-G2. The series is described as follows: MTT assay, antiproliferative activity. The note with it: Homo sapiens, HepG2, 48h. It is filed as cell-based. On the procedure: as §3, §4
A further series relates to A549. The series can be described thus: MTT assay, antiproliferative activity. To be noted: Homo sapiens, 48h, read-out: Mean Growth Percentage. Type of series: cell-based. The procedure: as §3, §4
The subject of another series is MDA-MB231. The series is described as follows: MTT assay, antiproliferative activity. It is filed as cell-based. The note with it: Homo sapiens, MDA-MB-231, 48h. On the procedure:
as §3, §4

For another series, the system named is SK-BR3. The series can be described thus: MTT assay, antiproliferative activity. It is filed as cell-based. To be noted: Homo sapiens, SK-BR-3, 48h. The procedure: as §3, §4

As usually defined, the IC50 is the concentration that inhibits the measured activity by half. Turning to `COc1ccc(/C=N/NC(=O)c2c(N)n[nH]c2Nc2ccccc2)cc1OC` [10b, (E)-3-amino-N′-(3,4-dimethoxybenzylidene)-5-(phenylamino)-1H-pyrazole-4-carbohydrazide], the half-maximal inhibitory concentration (IC50) with washed platelets [1] was found to be 104 ± 4 µM; in the series on washed platelets [2], 94 ± 7 µM. In addition, the “Mean Growth Percentage” value in the series on GM-6114 was determined as 107.36%. Also, the “AA (%), percentage of antioxidant activity” value in series [3] is 76.45% and 76.45 ± 0.39%. In addition, the “DPPH (%)” value in series [3] came out at 23.55 ± 0.39%. Besides, the Mean growth percentage at 10 µM in the series with SKOV3 worked out at 114%; with SKMEL28, 94.5%; with Hep-G2 it was 115%; with MDA-MB231, 100%; in the series with SK-BR3, 91.6%. This molecule returned a mean growth percentage (cell growth remaining vs control) at 10 µM in the series on MCF7 of 95.3%. Besides, the activity at 10 µM was determined as 105% in the series with HeLa and 91.1% in the series with A549.

Turning to `COc1ccc(/C=N/NC(=O)c2c(Nc3ccccc3)nn(C)c2N)cc1OCc1ccccc1` [12d, (E)-5-amino-N′-(3-(benzyloxy)-4-methoxybenzylidene)-1-methyl-3-(phenylamino)-1H-pyrazole-4-carbohydrazide], the IC50 in the series on washed platelets [1] was found to be 171 ± 9 µM; in the series with washed platelets [2], 433 ± 16 µM. Moreover, in the series on GM-6114, the “Mean Growth Percentage” value stood at 102.79%. For the same molecule, the “AA (%), percentage of antioxidant activity” value in series [3] is reported as 69.10 ± 0.39%. Further, the “DPPH (%)” value in [3] was found to be 30.90 ± 0.39%. In addition, the Mean growth percentage at 10 µM with SKOV3 was 106%; in the series on SKMEL28, 80.8%; with Hep-G2, 105%; in the series with MDA-MB231, 94.1%; with SK-BR3 it was 90.6%. This molecule showed a mean growth percentage (cell growth remaining vs control) at 10 µM in the series with MCF7 of 85.2%. Besides, the activity at 10 µM with HeLa was found to be 85.7%; in the series on A549 it was 102%.

The term melting point denotes the temperature of the solid-liquid transition. As to `CCOC(=O)c1c(NC(=O)c2c(OC)cccc2OC)nn(C)c1Nc1ccccc1` [compound 20, Ethyl 3-(2,6-dimethoxybenzamido)-1-methyl-5-(phenylamino)-1H-pyrazole-4-carboxylate], the melting point was 158 to 160 °C. The IC50 with washed platelets [1] is 289 ± 27 µM. Also, in the series on GM-6114, the “Mean Growth Percentage” value came out at 64.71%. Besides, in the series on washed platelets [2], the IC50 was found to be 301 ± 24 µM. This molecule returned a Mean growth percentage at 10 µM in the series on SKOV3 of 84.4%. The mean growth percentage (cell growth remaining vs control) at 10 µM in the series with MCF7 was found to be 92.1%. The activity at 10 µM in the series on HeLa turned out to be 111%. The molecule also displayed a Mean growth percentage at 10 µM in the series with SKMEL28 of 83.6%. The molecule also had a Mean growth percentage at 10 µM in the series with Hep-G2 of 108%. Further, in the series with A549, the activity at 10 µM came out at 70.8%. The same molecule came in with a Mean growth percentage at 10 µM with MDA-MB231 of 124%. Moreover, the Mean growth percentage at 10 µM in the series on SK-BR3 is 106%.

The molecule `CCOC(=O)c1c(NC(=O)c2ccc(OC)c(OC)c2)nn(C)c1Nc1ccccc1` [compound 21, Ethyl 3-(3,4-dimethoxybenzamido)-1-methyl-5-(phenylamino)-1H-pyrazole-4-carboxylate] showed a melting point of 186 to 187 °C. In addition, in the series on washed platelets [1], the half-inhibitory concentration (IC50) came to 262 ± 13 µM. Besides, in the series on GM-6114, the “Mean Growth Percentage” value is 85.88%. The IC50 in the series on washed platelets [2] was determined as 278 ± 27 µM. Further, the Mean growth percentage at 10 µM in the series on SKOV3 turned out to be 90.2%. Further, in the series on MCF7, the mean growth percentage (cell growth remaining vs control) at 10 µM turned out to be 90.3%. Also, the activity at 10 µM in the series with HeLa amounted to 108%. The Mean growth percentage at 10 µM with SKMEL28 came to 84.6%. The molecule further gave a Mean growth percentage at 10 µM in the series with Hep-G2 of 97.9%. The activity at 10 µM in the series on A549 stood at 112%. This molecule also showed a Mean growth percentage at 10 µM in the series on MDA-MB231 of 149%. Besides, the Mean growth percentage at 10 µM in the series with SK-BR3 was 107%.
